# Data: publication doi:10.1101/2024.05.17.594698v1 (bioRxiv, 2024)
# Where a SMILES comes first, the peptide text is derived from it.
# How the values were obtained:
# human CD4+ T cells = assay: Cellular toxicity by Annexin V / PI staining; format: cell-based; details: DOS 10 µM; Fig S4J, n = 4 donors
# [1] = system: recombinant sestrins (sestrin1-FLAG, sestrin2-FLAG); assay: In vitro pull down with biotinylated DOS, recombinant tagged proteins; format: binding; details: DOS-biotin 10 µM, streptavidin beads, anti-flag immunoblot; Fig 1C
# H1N1 virus = details: mouse, in vivo
# [2] = system: primary human CD4+ T cells; assay: DOS-FITC incorporation by flow cytometry; format: cell-based; details: T cells depleted of all three sestrins by shRNAs; Fig 1F
# AMPK in human CD4+ Tsen = assay: AMPK activity as ACC phosphorylation; format: cell-based; details: 4 hours after DOS 10 µM treatment; Fig S3I right, blot number
# [3] = target: T1, ERK, JNK and p38 MAPK in Tsen sestrin 2 immunoprecipitates (sMACs) (Homo sapiens, UniProt P58004); assay: ELISA-based in vitro kinase assay on sestrin 2 immunoprecipitates; format: biochemical; details: DOS 10 µM, 30 minutes, ATP 200 μM; Fig 1I, n = 5 donors
# T1 sequence (P58004 1-480): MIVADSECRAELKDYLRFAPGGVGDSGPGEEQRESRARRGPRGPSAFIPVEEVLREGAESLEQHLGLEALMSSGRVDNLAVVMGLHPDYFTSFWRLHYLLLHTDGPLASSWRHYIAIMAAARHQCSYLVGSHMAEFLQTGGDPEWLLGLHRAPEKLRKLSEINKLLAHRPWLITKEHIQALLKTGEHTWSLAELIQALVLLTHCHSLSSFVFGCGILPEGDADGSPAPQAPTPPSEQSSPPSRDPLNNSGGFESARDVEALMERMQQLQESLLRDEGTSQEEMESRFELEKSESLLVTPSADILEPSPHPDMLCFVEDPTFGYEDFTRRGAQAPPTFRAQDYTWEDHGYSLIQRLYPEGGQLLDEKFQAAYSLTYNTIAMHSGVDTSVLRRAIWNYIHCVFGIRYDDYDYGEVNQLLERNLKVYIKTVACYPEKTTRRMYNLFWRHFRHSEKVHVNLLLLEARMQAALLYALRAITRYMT
# [4] = system: primary T cell sMAC composed of sestrin and MAPK kinases; assay: Biotinylated DOS pull down from human CD4+ T cell extracts; format: binding; details: overnight treatment, streptavidin IP, western blot, Fig 1H
# [5] = Observation of autoimmunity in pre-clinical cohorts; format: in vivo; details: large pre-clinical cohorts (over 400 animals)
# [6] = system: telomerase in human CD4+ Tsen; assay: Telomerase activity; format: cell-based; details: Tsen 3 days after DOS treatment; Fig S4I, n = 5 donors
# [7] = target: T2, GATOR/mTOR complex proteins (MIOS and WDR59) (Homo sapiens, UniProt Q6PJI9+Q9NXC5); assay: Biotinylated DOS pull down from human CD4+ T cell extracts; format: binding; details: overnight treatment, streptavidin IP, western blot, Fig 1H
# T2 sequence (Q9NXC5 1-875): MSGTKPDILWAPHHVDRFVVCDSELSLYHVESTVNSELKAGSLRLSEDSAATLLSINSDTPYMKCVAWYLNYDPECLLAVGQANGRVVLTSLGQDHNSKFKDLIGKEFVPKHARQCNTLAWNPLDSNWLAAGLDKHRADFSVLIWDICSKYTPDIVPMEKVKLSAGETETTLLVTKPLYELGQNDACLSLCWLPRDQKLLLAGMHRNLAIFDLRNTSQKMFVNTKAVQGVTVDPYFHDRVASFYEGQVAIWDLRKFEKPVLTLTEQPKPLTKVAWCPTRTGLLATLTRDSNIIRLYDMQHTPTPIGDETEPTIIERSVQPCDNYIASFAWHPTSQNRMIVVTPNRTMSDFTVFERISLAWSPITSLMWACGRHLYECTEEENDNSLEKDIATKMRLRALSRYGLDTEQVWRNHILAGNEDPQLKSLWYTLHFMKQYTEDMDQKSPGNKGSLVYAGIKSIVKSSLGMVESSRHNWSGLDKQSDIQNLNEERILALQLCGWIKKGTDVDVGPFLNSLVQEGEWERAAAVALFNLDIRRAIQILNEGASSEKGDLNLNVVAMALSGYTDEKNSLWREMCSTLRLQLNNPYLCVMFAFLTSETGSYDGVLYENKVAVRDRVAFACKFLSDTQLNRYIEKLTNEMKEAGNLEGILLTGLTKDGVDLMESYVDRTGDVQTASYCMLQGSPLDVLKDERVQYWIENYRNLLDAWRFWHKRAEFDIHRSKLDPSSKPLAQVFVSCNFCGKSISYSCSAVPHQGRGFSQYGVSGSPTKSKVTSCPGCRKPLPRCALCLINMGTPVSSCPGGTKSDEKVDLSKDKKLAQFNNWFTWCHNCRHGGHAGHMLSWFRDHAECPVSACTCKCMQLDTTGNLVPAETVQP
# T2 sequence (Q6PJI9 1-974): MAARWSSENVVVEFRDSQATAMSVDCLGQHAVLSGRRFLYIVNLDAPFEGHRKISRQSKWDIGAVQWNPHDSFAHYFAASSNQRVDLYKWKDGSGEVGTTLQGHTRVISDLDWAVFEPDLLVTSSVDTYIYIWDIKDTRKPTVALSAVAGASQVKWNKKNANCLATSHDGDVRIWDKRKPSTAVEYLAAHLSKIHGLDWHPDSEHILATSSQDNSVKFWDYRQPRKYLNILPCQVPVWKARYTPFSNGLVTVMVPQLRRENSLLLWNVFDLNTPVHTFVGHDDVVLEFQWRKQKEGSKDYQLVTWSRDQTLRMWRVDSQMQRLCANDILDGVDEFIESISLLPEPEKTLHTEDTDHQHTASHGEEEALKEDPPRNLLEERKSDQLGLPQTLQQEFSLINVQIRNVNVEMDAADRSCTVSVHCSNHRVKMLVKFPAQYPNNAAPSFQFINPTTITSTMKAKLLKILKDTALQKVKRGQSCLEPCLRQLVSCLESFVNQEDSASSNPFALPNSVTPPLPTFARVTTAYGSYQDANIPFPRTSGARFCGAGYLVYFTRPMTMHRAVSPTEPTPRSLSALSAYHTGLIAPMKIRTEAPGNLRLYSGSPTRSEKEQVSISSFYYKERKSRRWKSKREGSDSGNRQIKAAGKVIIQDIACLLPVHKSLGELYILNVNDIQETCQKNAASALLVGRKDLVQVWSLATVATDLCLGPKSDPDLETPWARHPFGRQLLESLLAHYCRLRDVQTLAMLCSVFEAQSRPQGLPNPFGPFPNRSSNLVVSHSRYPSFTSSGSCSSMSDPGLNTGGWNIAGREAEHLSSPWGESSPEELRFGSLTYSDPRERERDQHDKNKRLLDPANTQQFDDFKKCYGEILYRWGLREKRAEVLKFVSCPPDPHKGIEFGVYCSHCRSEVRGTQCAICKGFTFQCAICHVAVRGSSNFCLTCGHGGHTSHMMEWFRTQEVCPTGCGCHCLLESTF
# AMPK1-His-tagged = AMPK1-His-tagged (Homo sapiens, UniProt Q13131); assay: In vitro pull down with biotinylated DOS, recombinant tagged proteins; format: binding; details: DOS-biotin 10 µM, streptavidin beads; Fig 1C
# Chain of AMPK1-His-tagged (Q13131 whole entry): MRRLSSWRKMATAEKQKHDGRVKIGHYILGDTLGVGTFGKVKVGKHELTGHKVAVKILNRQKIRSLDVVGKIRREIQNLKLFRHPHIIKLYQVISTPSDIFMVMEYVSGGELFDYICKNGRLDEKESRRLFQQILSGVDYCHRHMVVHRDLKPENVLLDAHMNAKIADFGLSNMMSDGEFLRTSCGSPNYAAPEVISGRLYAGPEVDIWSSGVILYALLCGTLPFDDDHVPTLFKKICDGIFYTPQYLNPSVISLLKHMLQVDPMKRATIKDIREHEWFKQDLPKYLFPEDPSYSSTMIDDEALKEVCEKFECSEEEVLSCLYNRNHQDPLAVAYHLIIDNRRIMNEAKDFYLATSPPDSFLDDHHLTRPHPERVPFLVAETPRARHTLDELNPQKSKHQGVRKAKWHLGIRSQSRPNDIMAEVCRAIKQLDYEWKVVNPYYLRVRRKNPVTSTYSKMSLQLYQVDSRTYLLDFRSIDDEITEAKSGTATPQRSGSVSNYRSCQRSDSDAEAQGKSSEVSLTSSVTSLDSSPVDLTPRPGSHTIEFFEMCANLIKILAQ
smiles,measurement,setting,value
CC[C@H](C)[C@@H]1NC(=O)[C@H](Cc2ccccc2)NC(=O)[C@H](C)NC(=O)[C@H](C(C)C)NC(=O)[C@@H]2CCCN2C1=O [DOS] (cyclo(AFIPV)),Cell damage or death (Annexin-propidium iodide staining),human CD4+ T cells,did not cause cell damage or death
same,Direct binding to recombinant sestrins,[1],direct DOS binding to sestrins
same,Lung necrosis after H1N1 infection,H1N1 virus,no sign of lung necrosis
same,DOS entrance in sestrin-null T cells,[2],did not enter
same,"p-ACC/ACC by immunoblotting, fold change to untreated control set as 1",AMPK in human CD4+ Tsen,0.25
same,"ERK, JNK and p38 MAPK kinase activity (autophosphorylation) in sMAC",[3],suppressed
same,Binding to primary T cell sMAC,[4],directly bound
same,Spontaneous autoimmunity,[5],yet to see any autoimmunity case
same,Telomerase activity,[6],not affected
same,Binding to GATOR/mTOR complex proteins,[7],not to GATOR/mTOR complex proteins
same,Direct binding to recombinant AMPK,AMPK1-His-tagged,not AMPK
